Data on two molecules can be found in ChEMBL document CHEMBL1121909, “Alkylating angiotensin II analogues: synthesis, analysis, and biological activity of angiotensin II analogues containing the nitrogen mustard melphalan in position 8” (J Med Chem, 1981).

Test [1] has as its system Rattus norvegicus. Description: The compound was tested in vivo for pressor activity in Rat uterine preparation. In kind it is functional.
Test [2] is filed under the species Rattus norvegicus. Description: Antagonism against angiotensin II induced contraction in Rat uterine preparation. To be noted: read-out: pA2 (converted). In kind it is functional.

Where a SMILES comes first, the peptide text is derived from it. [ ]: non-standard residue; d: D form. Phe(4-N(CH2CH2Cl)2) = N[C@@H](Cc1ccc(N(CCCl)CCCl)cc1)C(=O)O

In test [1], `CC[C@H](C)[C@@H](NC(=O)[C@H](Cc1ccc(O)cc1)NC(=O)[C@@H](NC(=O)[C@H](CCCNC(N)N)NC(=O)[C@@H](N)CC(=O)O)C(C)C)[C@@H](C)N[C@@H](Cc1c[nH]cn1)C(=O)N1CCC[C@@H]1C(=O)N[C@@H](Cc1ccc(N(CCCl)CCCl)cc1)C(=O)O` registered an Activity of 0.3%.

As for `CC[C@H](C)[C@H](NC(=O)[C@H](Cc1ccc(O)cc1)NC(=O)[C@@H](NC(=O)[C@H](CCCN=C(N)N)NC(=O)[C@H](CC(N)=O)NC(C)=O)C(C)C)C(=O)N[C@@H](Cc1c[nH]cn1)C(=O)N1CCC[C@H]1C(=O)N[C@@H](Cc1ccc(N(CCCl)CCCl)cc1)C(=O)O` (Ac-NRVYIHP[Phe(4-N(CH2CH2Cl)2)]-OH), the Kb in test [2] was 3.16 nM.
